Measured values published in ChEMBL document CHEMBL5665443, “Enzyme Inhibitor Single Concentration assay results for EUbOPEN Chemogenomics Library” (2024).

How the values were obtained:
[1] = biological target: Methyl-CpG-binding domain protein 4 (Homo sapiens) (UniProt O95243); settings: Hit No;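 further: MBD4 activity read as fluorescence at 594 nm from cleavage and release of a quenched duplex DNA oligonucleotide, with APE1 coupled to incise the strand and raise turnover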
[2] = biological target: Endonuclease 8-like 1 (Homo sapiens) (UniProt Q96FI4); settings: Hit No;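 further: fluorescence at 594 nm from quenched duplex DNA oligonucleotides released by NEIL1 cleavage and strand separation, reported as reduction of this enzyme activity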
[3] = biological target: T1, Endonuclease III-like protein 1 (Homo sapiens) (UniProt P78549); settings: Hit No;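 further: enzyme assay tracking NTHL1 cutting and release of a quenched double-stranded DNA oligo substrate, read as fluorescence at 594 nm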
T1 sequence (whole entry): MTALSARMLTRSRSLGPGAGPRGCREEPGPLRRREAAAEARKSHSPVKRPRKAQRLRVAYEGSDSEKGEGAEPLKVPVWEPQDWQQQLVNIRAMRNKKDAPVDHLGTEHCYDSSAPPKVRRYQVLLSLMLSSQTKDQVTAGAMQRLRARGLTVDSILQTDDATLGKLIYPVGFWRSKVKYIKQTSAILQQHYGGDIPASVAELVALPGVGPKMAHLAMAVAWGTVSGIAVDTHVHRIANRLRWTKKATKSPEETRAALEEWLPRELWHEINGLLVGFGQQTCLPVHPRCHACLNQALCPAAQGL

[4] = biological target: T2, Single-strand selective monofunctional uracil DNA glycosylase (Homo sapiens) (UniProt Q53HV7); settings: Hit No;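 further: enzymatic SMUG1 assay coupled with APE1, reading fluorescence at 594 nm released when a quenched double-stranded DNA oligonucleotide substrate is cleaved and separated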
T2 sequence (whole entry): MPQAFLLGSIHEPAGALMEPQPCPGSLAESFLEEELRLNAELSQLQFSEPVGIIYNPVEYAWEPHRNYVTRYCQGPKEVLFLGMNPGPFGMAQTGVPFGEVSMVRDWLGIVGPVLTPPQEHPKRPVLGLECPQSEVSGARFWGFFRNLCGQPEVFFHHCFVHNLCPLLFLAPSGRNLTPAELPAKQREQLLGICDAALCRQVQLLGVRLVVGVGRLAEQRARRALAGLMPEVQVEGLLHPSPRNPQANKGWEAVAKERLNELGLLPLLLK

[5] = biological target: G/T mismatch-specific thymine DNA glycosylase (Homo sapiens) (UniProt Q13569); settings: Hit No;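 further: human TDG cleavage of quenched duplex DNA oligonucleotides coupled to APE1, strand release read as fluorescence at 594 nm, inhibition of TDG activity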
[6] = biological target: Uracil-DNA glycosylase (Homo sapiens) (UniProt P13051); settings: Hit No;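 further: UNG excision on a quenched double-stranded DNA oligo probe, with APE1 added for strand incision and turnover, read as fluorescence at 594 nm as strands separate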
[7] = biological target: N-glycosylase/DNA lyase (Homo sapiens) (UniProt O15527); settings: Hit No;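 further: OGG1 cleavage of a quenched duplex DNA oligonucleotide, coupled to APE1 for strand incision, read as fluorescence at 594 nm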
Description: Inhibition of OGG1 by quantifying inhibition of OGG1-mediated cleavage and dissociation of quenched duplex DNA oligonucleotides, measured as fluorescence at 594 nm. To generate a functional strand incision and increase turn-over this assay is coupled to APE1.

[8] = biological target: T3, Endonuclease 8-like 2 (Homo sapiens) (UniProt Q969S2); settings: Compound Concentration 10.0 uM, Hit No;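 further: fluorescence at 594 nm reports NEIL2 cutting and release of a quenched double-stranded DNA oligo substrate, reduced signal read as inhibition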
T3 sequence (whole entry): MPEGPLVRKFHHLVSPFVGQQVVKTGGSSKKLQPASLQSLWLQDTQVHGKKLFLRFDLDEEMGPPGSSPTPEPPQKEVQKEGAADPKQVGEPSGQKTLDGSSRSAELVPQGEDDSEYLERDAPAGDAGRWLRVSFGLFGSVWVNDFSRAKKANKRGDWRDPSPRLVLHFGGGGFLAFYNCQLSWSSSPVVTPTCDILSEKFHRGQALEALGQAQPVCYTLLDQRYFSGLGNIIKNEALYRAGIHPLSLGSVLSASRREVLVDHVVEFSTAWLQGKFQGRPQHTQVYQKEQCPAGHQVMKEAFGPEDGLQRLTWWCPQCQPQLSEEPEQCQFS
Description: Inhibition of NEIL2 by quantifying inhibition of NEIL2-mediated cleavage and dissociation of quenched duplex DNA oligonucleotides, measured as fluorescence at 594 nm.

Chain of N-glycosylase/DNA lyase (Homo sapiens) (O15527 whole entry): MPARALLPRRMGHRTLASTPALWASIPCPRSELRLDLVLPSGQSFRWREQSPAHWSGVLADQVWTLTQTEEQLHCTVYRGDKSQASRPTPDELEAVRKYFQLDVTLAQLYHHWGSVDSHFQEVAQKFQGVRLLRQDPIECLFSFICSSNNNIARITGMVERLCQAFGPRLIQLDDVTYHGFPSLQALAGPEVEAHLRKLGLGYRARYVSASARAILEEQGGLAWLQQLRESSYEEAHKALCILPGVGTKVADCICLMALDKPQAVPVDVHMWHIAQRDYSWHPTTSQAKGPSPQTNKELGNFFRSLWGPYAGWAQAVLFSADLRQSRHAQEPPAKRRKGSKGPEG
Chain of Endonuclease 8-like 1 (Homo sapiens) (Q96FI4 whole entry): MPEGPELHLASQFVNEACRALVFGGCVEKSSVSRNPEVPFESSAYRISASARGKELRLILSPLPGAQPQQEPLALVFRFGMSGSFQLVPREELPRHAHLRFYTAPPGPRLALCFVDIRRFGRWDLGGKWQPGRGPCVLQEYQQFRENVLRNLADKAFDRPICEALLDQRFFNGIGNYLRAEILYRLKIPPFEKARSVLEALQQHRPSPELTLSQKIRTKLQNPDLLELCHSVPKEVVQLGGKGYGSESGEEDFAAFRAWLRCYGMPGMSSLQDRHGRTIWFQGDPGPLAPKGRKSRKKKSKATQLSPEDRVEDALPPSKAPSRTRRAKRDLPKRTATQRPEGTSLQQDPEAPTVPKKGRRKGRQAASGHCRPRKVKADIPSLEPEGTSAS
Chain of G/T mismatch-specific thymine DNA glycosylase (Homo sapiens) (Q13569 whole entry): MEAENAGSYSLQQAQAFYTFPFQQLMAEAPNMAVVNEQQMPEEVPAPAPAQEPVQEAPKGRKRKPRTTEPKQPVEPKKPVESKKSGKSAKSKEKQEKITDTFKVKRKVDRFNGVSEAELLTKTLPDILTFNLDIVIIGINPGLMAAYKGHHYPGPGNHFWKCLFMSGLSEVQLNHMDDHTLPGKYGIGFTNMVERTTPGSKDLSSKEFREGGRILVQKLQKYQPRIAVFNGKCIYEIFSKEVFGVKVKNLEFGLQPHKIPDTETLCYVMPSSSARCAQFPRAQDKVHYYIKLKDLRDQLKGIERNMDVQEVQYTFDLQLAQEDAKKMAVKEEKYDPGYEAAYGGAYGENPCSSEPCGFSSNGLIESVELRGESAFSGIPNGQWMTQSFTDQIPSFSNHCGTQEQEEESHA
Chain of Uracil-DNA glycosylase (Homo sapiens) (P13051 whole entry): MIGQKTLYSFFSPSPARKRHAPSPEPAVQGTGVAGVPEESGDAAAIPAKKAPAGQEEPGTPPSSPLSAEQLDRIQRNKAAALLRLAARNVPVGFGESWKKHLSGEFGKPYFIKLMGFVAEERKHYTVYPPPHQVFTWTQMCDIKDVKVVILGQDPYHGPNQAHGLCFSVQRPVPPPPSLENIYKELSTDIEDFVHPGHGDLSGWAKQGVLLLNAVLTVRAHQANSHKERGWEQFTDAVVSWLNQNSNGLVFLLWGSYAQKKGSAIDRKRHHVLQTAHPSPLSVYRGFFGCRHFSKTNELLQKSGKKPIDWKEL
Chain of Methyl-CpG-binding domain protein 4 (Homo sapiens) (O95243 whole entry, the tested form may be a part): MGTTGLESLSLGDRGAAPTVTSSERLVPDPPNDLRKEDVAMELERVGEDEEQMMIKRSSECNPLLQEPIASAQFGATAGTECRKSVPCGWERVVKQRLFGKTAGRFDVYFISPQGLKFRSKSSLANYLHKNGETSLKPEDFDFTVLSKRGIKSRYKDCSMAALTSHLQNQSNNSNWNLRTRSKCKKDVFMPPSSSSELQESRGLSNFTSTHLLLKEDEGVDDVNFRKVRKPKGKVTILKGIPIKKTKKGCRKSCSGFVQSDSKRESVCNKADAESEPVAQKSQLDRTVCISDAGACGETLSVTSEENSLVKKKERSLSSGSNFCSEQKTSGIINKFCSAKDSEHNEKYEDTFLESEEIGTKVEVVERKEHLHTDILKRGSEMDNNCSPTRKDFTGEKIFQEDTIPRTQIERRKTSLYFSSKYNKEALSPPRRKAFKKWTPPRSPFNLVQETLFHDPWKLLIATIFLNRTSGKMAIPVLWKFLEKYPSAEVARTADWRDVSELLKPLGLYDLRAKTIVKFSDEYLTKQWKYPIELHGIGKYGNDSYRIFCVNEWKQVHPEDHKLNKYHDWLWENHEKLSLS

SMILES	inhibition ([1]; Compound Concentration 10.0 uM)	inhibition ([2]; Compound Concentration 10.0 uM)	inhibition ([3]; Compound Concentration 10.0 uM)	inhibition ([4]; Compound Concentration 10.0 uM)	inhibition ([5]; Compound Concentration 10.0 uM)	inhibition ([6]; Compound Concentration 10.0 uM)	inhibition ([7]; Compound Concentration 10.0 uM)	inhibition [8]	inhibition ([1]; Compound Concentration 1.0 uM)	inhibition ([2]; Compound Concentration 1.0 uM)	inhibition ([3]; Compound Concentration 1.0 uM)	inhibition ([7]; Compound Concentration 1.0 uM)	inhibition ([4]; Compound Concentration 1.0 uM)	inhibition ([5]; Compound Concentration 1.0 uM)	inhibition ([6]; Compound Concentration 1.0 uM)
COc1ccc([C@@H]2Sc3ccccc3N(CCN(C)C)C(=O)[C@@H]2OC(C)=O)cc1	-5.04%	3.71%	30.3%	0.325%	-1.73%	-4.36%									
CN(C)C(=O)c1sc2nc(N3CCC(S(C)(=O)=O)CC3)cc(C(F)(F)F)c2c1N	1.76%	-3.24%	2.05%	-2.07%	-5.21%		-1.24%								
COc1ccnc(N2CCC3(CCCN(Cc4c[nH]c5ccccc45)C3=O)CC2)n1	-0.547%	9.14%	6.32%	15.5%	4.73%		-2.11%	-0.983%							
CSc1cccnc1N1CCN(Cc2nc3ccccc3[nH]2)CC1	54.7%		-5.89%	6.69%	19.8%	0.535%	6.57%								
CNC[C@H](O)c1cccc(O)c1	-3.74%	-4.8%	-9.8%	-2.99%	-5.83%		-3.42%	7.25%							
CC(C)(C)OC(=O)N1CCCC1CNC1CCC(c2cc(F)ccc2F)(S(=O)(=O)c2ccc(Cl)cc2)CC1 (configuration not stated)	45.5%		-1.29%	19.7%	17.3%	1.86%	4.85%								
Cc1cnc(Nc2ccc(F)cc2Cl)nc1-c1c[nH]c(C(=O)N[C@H](CO)c2cccc(Cl)c2)c1									-4.19%	-0.127%	-6.19%	-8.42%	23.9%	46.4%	2.73%
CCc1cc(Nc2nccc(-c3c(-c4ccc(OC)c(C(=O)Nc5c(F)cccc5F)c4)nc4ccccn34)n2)c(OC)cc1N1CCC(N2CCN(S(C)(=O)=O)CC2)CC1									32.9%	-8.84%	-1.31%	10.7%	21.4%	50.7%	0.56%
COc1ccc(CC[C@@H](OC(=O)[C@@H]2CCCCN2C(=O)[C@H](c2cc(OC)c(OC)c(OC)c2)C2CCCCC2)c2cccc(OCCN3CCOCC3)c2)cc1OC	43.3%		-7.86%	4.21%	31.2%	0.833%	-4.59%								
COc1c(OCCCN2CCOCC2)ccc2c1N=C(NC(=O)c1cnc(N)nc1)N1CCN=C21									-2.38%	-8.98%	4.97%	5.38%	20%	26.4%	-3.63%
COc1cc(C(=O)O)ncc1C#Cc1ccccc1NS(=O)(=O)c1cccc2c(N(C)C)ccnc12	66.6%	-0.29%	-8.52%	6.29%	46.3%	2.52%		6.91%							
C[C@@H]1CN(c2nccc(Nc3ccc4c(c3)n(CCC(C)(C)O)c(=O)n4C)n2)C[C@H](C)C1(F)F	56.2%	-3.77%	-0.63%	7.55%	98.6%	5.07%		-8.14%							
C[C@H](NC(=O)c1cnc2n1[C@](C)(Cc1ccc(C#N)cc1)C(=O)N2c1cc(Cl)c(F)c(Cl)c1)C(=O)NC1(c2ccccn2)CC1	60.9%	5.16%	-4.57%	22.8%	52.5%	7.8%		-4.83%							
CCOc1cn(-c2ccc(F)cc2C)nc1C(=O)Nc1ccc(Oc2ccnc3cc(OC)c(OC)cc23)c(F)c1									31.6%	0.138%	-2%		21.7%	46.5%	1.39%
